US12558369B2, “Compositions and methods of treating Fanconi Anemia” (Dana-Farber Cancer Institute, Inc., priority 2015, dated 2026)
Entries after “also recorded” stand apart in the source; their conditions may differ.

Key:
[1] = test system: GM6914 cells (FA-A cells); assay: Traffic light reporter (TLR) assay of HR and NHEJ; assay type: cell-based, human; conditions: GM6914, 10 μM SD208, 72 hrs
Excerpt: FIG. 17. TGF-β pathway Inhibition Increases HR and Decreases NHEJ activities in FA Cells. • (A, B) TGF-β pathway inhibition affects the choice of HR versus NHEJ pathways in repairing individual DNA breakpoints in FA cells. GM6914 cells (FA-A cells) or FANCA corrected GM6914 cells with shControl or shSMAD3 were used to generate traffic light reporter system, and then were infected with GFP-donor template and I-SceI lentivirus to generate DNA breakpoints. Quantification analysis of HR and NHEJ repair events is shown. (B) The ratio of HR to NHEJ activity based on the data in (A). […] Quantification of HR and NHEJ repair events in GM6914 cells exposed to SD-208 for 72 hrs as detected by traffic light reporter assay described in (A). […] HR assay was measured in U2OS cells with DR-GFP reporter after transduction with lentivirus encoding indicated shRNAs. The representative of three independent experiments is presented. […] (F, G) TGF-β pathway inhibition promotes HR activity in FA cells. Representative images (F) and quantification (G) of RAD51 foci in MMC treated GM6914 (FA-A) cells or FANCA corrected GM6914 cells with shRNA-mediated knockdown of SMAD3. […] One hundred cells were scored for RAD51 foci. […]
the presence of 8 μg/mL polybrene. […] Genome engineering events were analyzed by flow cytometry at 72 hours after transduction. NHEJ is represented by mCherry fluorescence, and HR by GFP fluorescence.

EUFA316 = assay: Acetaldehyde sensitivity survival assay; assay type: cell-based, human; conditions: EUFA316 cells
Experimental: (§1) FIG. 1. TGFβ pathway disruption enhances FA cellular growth. • A) RIGER P value analysis to identify top candidate genes. • B) Clonogenic survival of GM6914 (FA-A fibroblasts) and FANCA-corrected GM6914 cells after shRNA mediated knockdown of SMAD3. Cells were treated with increasing doses of MMC and plated for 10-12 days. The average of two experiments is presented; error bars represent s.e.m.
(§2) For survival assays, cells were seeded at a density of 1×10^3 cells per well in 96-well plates. After 72 hours of culture in indicated concentrations of MMC or post exposure of acetaldehyde, viability was assessed using CellTiterGlo reagent (Promega). In order to assess clonogenicity, cells were seeded at a low density (500-1000 cells per well) in 6-well plates and allowed to form colonies. The cells were then fixed in methanol/20% acetic acid and stained with 1% crystal violet. Colony formation was assessed by solubilizing crystal violet stain with methanol and quantifying UV absorbance for each condition.
(§3) For survival assays, cells were seeded at a density of 1×10^3 cells per well in 96-well plates. After 3-6 days of culture in indicated concentrations of MMC or post exposure of acetaldehyde, viability was assessed using CellTiterGlo reagent (Promega). […] Colonies were counted after crystal violet staining.

[2] = test system: Lin− cells from WT and Fancd2−/− mice; assay: Bone marrow Lin− cell growth under TGF-β1; assay type: cell-based, mouse; conditions: TGF-β1 1 ng/mL; Ab 10 μg/mL or SD208 10 μM; 5 days
Experimental: (§4) (A) Expression of phospho-Smad2/3 proteins in HSPCs from WT and Fancd2−/− mice as detected by flow cytometric analysis. (B) Quantification of mean fluorescence intensity (MFI) of phospho-Smad2/3 staining by flow cytometric analysis shown in (A) in HSPCs from WT and Fancd2−/− mice. (C) Fancd2−/− HSPCs are more sensitive to TGF-β1 than WT HSPCs. Sorted Lin− cells from WT or Fancd2−/− mice were exposed to TGF-β1. After 5 days in culture, LSK cells were analyzed by flow cytometry and quantified. Data are shown after normalizing to untreated WT group. […] Sorted Lin− cells from WT and Fancd2−/− mice were exposed to TGF-β1 (1 ng/mL) with or without TGF-beta 1,2,3 Ab (10 μg/mL) or SD208 (10 μM), and viable cells were counted after 5 days in culture. Data shown are after normalizing to untreated WT group. Error bars represent mean±s.e.m. (F) Clonogenic assay of WT and Fancd2−/− HSPCs treated with TGF-β1, TGF-beta 1, 2, 3 Ab or SD208. […] Hematopoietic colonies were counted after 7-10 days in culture. […] (I) Representative FACS plots of LSK cells analyzed by flow cytometry for GFP expression after 5 days in vitro culture in stem cell culture medium. […] Luciferase activity was measured. (L) Binding of FANCD2 to SMAD1 promoter (region −2108 to −1950 bp) upon DNA damage as detected by ChIP assay using anti-FANCD2 antibody in corrected GM6914 (+FANCA) but not GM6914 (+Vector) fibroblast cells. […]

[3] = test system: EUFA316 (FA-G fibroblasts); assay: MMC sensitivity survival assay of FA cells with TGFβ pathway inhibitors; assay type: cell-based, human
Experimental: as §1, §2
as §2, with “3-6 days” for “72 hours”, “Colonies were counted after” for “Colony formation was assessed by solubilizing”, “staining.” for “stain with methanol and quantifying UV absorbance for each condition.”

Fancd2−/− HSPCs = assay: Clonogenic assay of HSPCs in methylcellulose; assay type: cell-based, mouse; conditions: TGF-β1 1 ng/mL, Ab 10 μg/mL or SD208 10 μM; colonies after 7-10 days
Experimental: as §4

U2OS cells [4] = assay: Immunoblot of DNA-PK phosphorylation; assay type: cell-based, human
U2OS cells [5] = assay: NHEJ reporter assay; assay type: cell-based, human; conditions: template reporter assay
mouse fibroblast cells = assay: Immunoblot of Smad2 phosphorylation; assay type: cell-based; conditions: immunoblot of lysates
GM6914 = assay: MMC cell viability (CellTiterGlo) to identify IC90; assay type: cell-based, human; conditions: GM6914, MMC for 7 days
Experimental: FIG. 7. Identification of IC90 concentration of MMC on GM6914 and validation of genome wide RNAi screening for MMC resistance. • A) Identification of IC90 concentration of MMC on GM6914. Cells were treated with different doses of MMC for 7 days, and cell viability was measured using CellTiterGlo reagent. […] Cells were transduced with 6 pools of shRNA retrovirus libraries, and selected with puromycin for 48 h. Cells were then treated with MMC for 7 days, and resistant cells were harvested to re-assess their MMC sensitivity by treated with MMC for 3 days. Data shown represented cells transduced by pool #3, 5 and 6. • C) FANCA deficient fibroblast cells (GM6914) were evaluated for MMC sensitivity after shRNA mediated knockdown of SMAD3 and TP53. Survival was measured after 3 days exposure to indicated concentrations of MMC. […] Error bars represent s.e.m. • D) FANCD2 deficient fibroblast cells (PD20) were evaluated for MMC sensitivity after RNAi mediated knockdown of SMAD3 and TP53. Survival was measured after 3 days exposure to indicated concentrations of MMC. […]
as §3

With `Fc1ccc(Cl)cc1-c1nc(Nc2ccncc2)c2nccnc2n1` [SD208] the “HR activity / HR events” value [1] was “increased HR activity; also recorded: increases HR events”, the NHEJ events [1] was “decreases NHEJ events” and the “survival in the presence of acetaldehyde” value (EUFA316) was “significantly promoted survival”. The “inhibitory effect of TGF-β1 on bone marrow Lin− cell growth” value [2] was “rescues inhibitory effect of TGF-β1”, the “FA cells survival in the presence of MMC” value ([3]; FA cell lines with inhibitor) was “improved FA cells survival in the presence of MMC” and the “cytotoxicity of corrected FA cells” value ([3]; corrected FA cells) was “do not significantly alter cytotoxicity of corrected FA cells”. The “clonogenic ability of Fancd2−/− HSPCs” value (Fancd2−/− HSPCs) was “markedly enhanced the clonogenic ability”, the “phosphorylation of DNA-PK” value (U2OS cells [4]) was “blocks phosphorylation of DNA-PK” and the NHEJ activity (U2OS cells [5]) was “decreased NHEJ”. For the same compound, the “phosphorylation of Smad2” value (mouse fibroblast cells) was “reduced phosphorylation of Smad2”.

`CO[C@@]12[C@H](COC(N)=O)C3=C(C(=O)C(C)=C(N)C3=O)N1C[C@@H]1N[C@@H]12` [MMC, mitomycin C] gave an IC90 (GM6914) of 19 nM.
